Laboratory results as given in ChEMBL document CHEMBL1201862, “PubChem BioAssay data set” (2004).
Active and inactive are the calls of the source. Rule as the data show it: actives have a measured IC50 and inactives only a lower limit.

Target: Envelope glycoprotein gp160 (Human immunodeficiency virus 1, UniProt Q6QLK5)
Test: cell-free HIV fusion peptide-binding blockers – biochemical, uHTS, fluorescence dequenching, […] (AID 1986)

Sequence of Envelope glycoprotein gp160 (Q6QLK5 whole entry, the tested form may be a part): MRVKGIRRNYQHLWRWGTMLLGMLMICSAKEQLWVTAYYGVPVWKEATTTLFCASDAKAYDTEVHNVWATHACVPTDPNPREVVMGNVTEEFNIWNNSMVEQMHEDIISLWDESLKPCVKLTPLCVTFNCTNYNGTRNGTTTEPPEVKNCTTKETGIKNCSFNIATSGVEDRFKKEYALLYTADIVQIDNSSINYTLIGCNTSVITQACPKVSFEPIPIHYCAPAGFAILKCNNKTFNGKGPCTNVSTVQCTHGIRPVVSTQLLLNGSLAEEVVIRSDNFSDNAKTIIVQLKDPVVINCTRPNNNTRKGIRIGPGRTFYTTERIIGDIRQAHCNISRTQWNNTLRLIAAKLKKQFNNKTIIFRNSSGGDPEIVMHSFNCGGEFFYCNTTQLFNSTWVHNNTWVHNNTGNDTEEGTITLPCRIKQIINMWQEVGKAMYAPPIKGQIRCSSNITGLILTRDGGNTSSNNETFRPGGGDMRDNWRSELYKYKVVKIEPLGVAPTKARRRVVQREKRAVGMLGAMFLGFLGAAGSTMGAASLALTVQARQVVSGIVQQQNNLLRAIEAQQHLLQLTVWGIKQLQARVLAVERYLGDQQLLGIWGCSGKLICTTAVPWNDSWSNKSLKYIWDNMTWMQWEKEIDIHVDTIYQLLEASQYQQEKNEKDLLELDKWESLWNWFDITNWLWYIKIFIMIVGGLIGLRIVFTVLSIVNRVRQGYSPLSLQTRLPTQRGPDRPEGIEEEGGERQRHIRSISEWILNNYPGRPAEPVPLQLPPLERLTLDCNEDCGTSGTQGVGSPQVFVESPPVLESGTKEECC

| Structure (SMILES) | IC50 |
| --- | --- |
| COc1cc(C(c2c(C(=O)O)[nH]c3ccccc23)c2c(C(=O)O)[nH]c3ccccc23)ccc1OCc1ccccc1 | 7.01 µM (active) |
| CN(C)S(=O)(=O)c1cccc(-c2nn(-c3ccccc3)cc2/C=C2\SC(=S)NC2=O)c1 | 11.8 µM (active) |
